Assay results reported in article PMC8421423, “Cellular model system to dissect the isoform-selectivity of Akt inhibitors” (Nature Communications, 2021).
Several values for one entry are separate records, joined by “and”; a condition that tells them apart may be missing. Equal values may be shown once. Read-outs that look alike come from different tables or passages of the source. Blank lines part the entries; values can stand above or below the compound they belong to.

Assays:
parental Ba/F3 cells = test: CellTiter-Glo cell viability assay; format: cell-based, murine
Ba/F3^myr-Akt1 cells = test: CellTiter-Glo cell viability assay; details: for Log ratio EC50 [Akt] / EC50 [Akt], Akt1 / Akt2: cell viability assay Ba/F3 myr-Akt cells, log units
Ba/F3^myr-Akt2 cells = test: CellTiter-Glo cell viability assay
Ba/F3^myr-Akt3 cells = test: CellTiter-Glo cell viability assay; details: for Log ratio EC50 [Akt] / EC50 [Akt], Akt3 / Akt2: cell viability assay Ba/F3 myr-Akt cells, log units
Akt1 [1] = molecular target: T1, Akt1 (Homo sapiens, UniProt P31749); test: STK HTRF KinEASE activity-based assay (IC50); details: for Log ratio IC50 [Akt] / IC50 [Akt], Akt1 / Akt2: biochemical activity based assay, log units
Akt2 [2] = molecular target: T2, Akt2 (Homo sapiens, UniProt P31751); test: STK HTRF KinEASE activity-based assay (IC50)
Akt3 [3] = molecular target: T3, Akt3 (Homo sapiens, UniProt Q9Y243); test: STK HTRF KinEASE activity-based assay (IC50)
Akt1 [4] = molecular target: T1, Akt1; test: PhosphoSens continuous fluorometric kinetic enzyme assay
Akt2 [5] = molecular target: T2, Akt2; test: as above
[6] = CellTiter-Glo cell viability assay; format: cell-based, murine; details: mouse, cell viability
[7] = test system: pAkt^S473 and downstream targets in Ba/F3 myr-Akt1; details: Ba/F3 myr-Akt1, 4-h treatment
Akt3 [8] = molecular target: T3, Akt3; test: PhosphoSens continuous fluorometric kinetic enzyme assay
[9] = Mus musculus, BaF3, CTG, parental BaF3 cell line, read-out: EC50 BaF3
[10] = Mus musculus, BaF3, parental cells, mean of replicates, read-out: CTG BaF3, Mean
[11] = Mus musculus, BaF3, parental cells, single replicates, read-out: CTG BaF3, individual determinations
[12] = parental cells, single replicates, read-out: CTG BaF3, individual determinations
[13] = Mus musculus, read-out: CTG BaF3myr-Akt1, individual determinations, single replicates
[14] = read-out: CTG BaF3myr-Akt1, individual determinations, single replicates
[15] = Mus musculus, read-out: CTG BaF3myr-Akt2, Mean, mean of replicates
[16] = read-out: CTG BaF3myr-Akt2, individual determinations, single replicates
[17] = Mus musculus, read-out: CTG BaF3myr-Akt3, Mean, mean of replicates
[18] = Mus musculus, read-out: CTG BaF3myr-Akt3, individual determinations, single replicates
[19] = read-out: CTG BaF3myr-Akt3, individual determinations, single replicates
[20] = HTRF IC50 Akt1, Mean, mean of replicates
[21] = HTRF IC50 Akt1, individual determinations, single replicates
[22] = IC50 Akt1, HTRF, ATP at KM, 1 h preincubation
[23] = HTRF IC50 Akt2, Mean, mean of replicates
[24] = HTRF IC50 Akt2, individual determinations, single replicates
[25] = IC50 Akt2, HTRF, ATP at KM, 1 h preincubation
[26] = HTRF IC50 Akt3, individual determinations, single replicates
[27] = IC50 Akt3, HTRF, ATP at KM, 1 h preincubation
[28] = Ki Akt2, Mean, mean of replicates
[29] = Ki Akt2, individual determinations, single replicates
[30] = read-out: kinact Akt2, individual determinations, single replicates
[31] = Mus musculus, read-out: CTG BaF3myr-Akt1, Mean, mean of replicates

T2 sequence (P31751 whole entry): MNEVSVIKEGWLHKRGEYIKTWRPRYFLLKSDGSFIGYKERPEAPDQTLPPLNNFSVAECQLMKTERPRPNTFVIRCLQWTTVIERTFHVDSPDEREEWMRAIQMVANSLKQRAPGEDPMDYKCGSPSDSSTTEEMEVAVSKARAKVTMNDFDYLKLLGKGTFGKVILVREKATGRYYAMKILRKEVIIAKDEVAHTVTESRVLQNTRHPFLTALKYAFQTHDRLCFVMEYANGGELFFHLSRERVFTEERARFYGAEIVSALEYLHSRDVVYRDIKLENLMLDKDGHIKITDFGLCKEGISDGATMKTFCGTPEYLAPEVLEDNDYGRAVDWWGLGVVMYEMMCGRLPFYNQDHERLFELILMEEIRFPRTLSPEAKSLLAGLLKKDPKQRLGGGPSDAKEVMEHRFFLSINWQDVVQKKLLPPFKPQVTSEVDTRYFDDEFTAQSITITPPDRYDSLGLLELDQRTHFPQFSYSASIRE
T3 sequence (Q9Y243 whole entry): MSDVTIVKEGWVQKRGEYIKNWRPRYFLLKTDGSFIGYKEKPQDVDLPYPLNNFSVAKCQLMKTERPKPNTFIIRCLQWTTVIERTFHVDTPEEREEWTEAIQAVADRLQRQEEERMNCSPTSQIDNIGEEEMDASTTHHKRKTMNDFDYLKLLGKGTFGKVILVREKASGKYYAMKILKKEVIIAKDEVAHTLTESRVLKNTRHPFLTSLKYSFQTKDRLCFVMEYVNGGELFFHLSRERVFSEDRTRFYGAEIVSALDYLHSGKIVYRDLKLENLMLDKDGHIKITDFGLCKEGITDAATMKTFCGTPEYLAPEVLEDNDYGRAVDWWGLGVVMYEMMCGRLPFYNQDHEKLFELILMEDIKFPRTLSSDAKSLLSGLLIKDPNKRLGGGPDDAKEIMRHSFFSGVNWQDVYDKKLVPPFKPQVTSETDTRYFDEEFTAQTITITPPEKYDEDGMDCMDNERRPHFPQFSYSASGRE
T1 sequence (P31749 whole entry): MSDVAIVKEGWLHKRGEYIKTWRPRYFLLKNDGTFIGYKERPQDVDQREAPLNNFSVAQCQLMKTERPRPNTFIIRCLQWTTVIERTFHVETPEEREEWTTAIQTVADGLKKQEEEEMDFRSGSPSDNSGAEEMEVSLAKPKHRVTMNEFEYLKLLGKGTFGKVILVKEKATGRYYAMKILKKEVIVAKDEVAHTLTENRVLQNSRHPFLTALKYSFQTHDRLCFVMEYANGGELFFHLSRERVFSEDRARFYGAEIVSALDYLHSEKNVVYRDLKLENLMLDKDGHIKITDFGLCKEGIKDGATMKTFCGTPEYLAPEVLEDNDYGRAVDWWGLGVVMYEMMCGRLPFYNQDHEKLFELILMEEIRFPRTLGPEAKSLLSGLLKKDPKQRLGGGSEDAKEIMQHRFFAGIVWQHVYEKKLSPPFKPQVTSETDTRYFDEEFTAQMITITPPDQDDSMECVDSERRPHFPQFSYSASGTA

EC50 (Ba/F3^myr-Akt1 cells; [13]): > 30 µM
EC50 (Ba/F3^myr-Akt1 cells; [14]): 15.1 µM and 22.5 µM
EC50 (Ba/F3^myr-Akt2 cells; [15]): 3.68 µM
EC50 (Ba/F3^myr-Akt2 cells; [16]): 3.19 µM and 5.41 µM and 2.46 µM
EC50 (Ba/F3^myr-Akt3 cells; [17]): 18.8 µM
EC50 (Ba/F3^myr-Akt3 cells; [18]): 18.3 µM
EC50 (Ba/F3^myr-Akt3 cells; [19]): 20.7 µM and 18.2 µM
IC50 (Akt1 [1]; [20]): 0.209 µM
IC50 (Akt1 [1]; [21]): 0.248 µM and 0.169 µM and 0.245 µM
IC50 (Akt1 [1]; [22]): 0.209 ± 0.04 µM
Log ratio IC50 [Akt] / IC50 [Akt], Akt1 / Akt2 (Akt1 [1]): 0.58
IC50 (Akt2 [2]; [23]): 0.0547 µM
IC50 (Akt2 [2]; [24]): 0.0575 µM and 0.0588 µM and 0.0479 µM
IC50 (Akt2 [2]; [25]): 0.055 ± 0.005 µM
IC50 (Akt3 [3]; HTRF IC50 Akt3, Mean, mean of replicates): 3.05 µM
IC50 (Akt3 [3]; [26]): 2.24 µM and 3.09 µM and 3.82 µM
IC50 (Akt3 [3]; [27]): 3.05 ± 0.646 µM
Ki (Akt1 [4]; Ki Akt1): 0.009 ± 0.003 µM
Ki (Akt1 [4]; Ki Akt1, Mean, mean of replicates): 0.00874 µM
Ki (Akt1 [4]; Ki Akt1, individual determinations, single replicates): 0.012 µM and 0.0059 µM and 0.0083 µM
kinact/KI (Akt1 [4]; read-out: kinact /Ki Akt1): 26000 ± 1000 M⁻¹ s⁻¹
kinact/KI (Akt1 [4]; read-out: kinact /Ki Akt1, Mean, mean of replicates): 26000 M⁻¹ s⁻¹
kinact/KI (Akt1 [4]; read-out: kinact /Ki Akt1, individual determinations, single replicates): 26000 M⁻¹ s⁻¹
kinact (Akt1 [4]; read-out: kinact Akt1): 0.000233 s⁻¹
kinact (Akt1 [4]; read-out: kinact Akt1, individual determinations, single replicates): 0.000317 s⁻¹
kinact Akt1, individual determinations (Akt1 [4]; single replicates): 0.010 min⁻¹ and 0.013 min⁻¹
Ki (Akt2 [5]; Ki Akt2): 0.011 ± 0.001 µM
Ki (Akt2 [5]; [28]): 0.0108 µM
Ki (Akt2 [5]; [29]): 0.0094 µM and 0.0107 µM and 0.0122 µM
kinact/KI (Akt2 [5]; read-out: kinact /Ki Akt2): 23000 ± 7000 M⁻¹ s⁻¹
kinact/KI (Akt2 [5]; read-out: kinact /Ki Akt2, Mean, mean of replicates): 23000 M⁻¹ s⁻¹
kinact/KI (Akt2 [5]; read-out: kinact /Ki Akt2, individual determinations, single replicates): 30000 M⁻¹ s⁻¹
kinact (Akt2 [5]; read-out: kinact Akt2): 0.000233 s⁻¹
kinact (Akt2 [5]; [30]): 0.000283 s⁻¹
kinact Akt2, individual determinations (Akt2 [5]; single replicates): 0.013 min⁻¹ and 0.012 min⁻¹
SMILES: C=CC(=O)Nc1ccc2[nH]c(=O)n(C3CCN(Cc4ccc(-c5ncc(C(=O)Nc6cccnc6)cc5-c5ccccc5)cc4)CC3)c2c1 [compound 22]
EC50 (parental Ba/F3 cells; [9]): > 30 µM
EC50 (parental Ba/F3 cells; [10]): > 30 µM
EC50 (parental Ba/F3 cells; [11]): > 30 µM
EC50 (parental Ba/F3 cells; [12]): > 30 µM
Log ratio EC50 [Akt] / EC50 [Akt], Akt1 / Akt2 (Ba/F3^myr-Akt1 cells): 0.79
Log ratio EC50 [Akt] / EC50 [Akt], Akt3 / Akt2 (Ba/F3^myr-Akt3 cells): -0.71

SMILES: C=CC(=O)Nc1ccc2[nH]c(=O)n(C3CCN(Cc4ccc(-c5nc(C)c(=O)[nH]c5-c5ccccc5)cc4)CC3)c2c1 [15a, reference compound]
viability at 3 days, 0.0001 µM [6]: 107%
EC50 (parental Ba/F3 cells; [9]): > 30 µM
EC50 (parental Ba/F3 cells; [10]): > 30 µM
EC50 (parental Ba/F3 cells; [11]): > 30 µM
EC50 (parental Ba/F3 cells; [12]): > 30 µM
pAkt and downstream targets (immunoblot) [7]: more potent towards myr-Akt1 than myr-Akt2 and myr-Akt3
EC50 (Ba/F3^myr-Akt1 cells; [31]): 7.21 µM
EC50 (Ba/F3^myr-Akt1 cells; [13]): 7.37 µM
viability at 0.0001 µM (Ba/F3^myr-Akt1 cells; Mus musculus, read-out: cell viability, CTG, myr-Akt1, 0.1 nM, single replicates): 107%
viability at 5 µM (Ba/F3^myr-Akt1 cells; Mus musculus, read-out: cell viability, CTG, myr-Akt1, 5000 nM, single replicates): 72.2%
Log ratio EC50 [Akt] / EC50 [Akt], Akt1 / Akt2 (Ba/F3^myr-Akt1 cells): -0.31
EC50 (Ba/F3^myr-Akt1 cells; [14]): 7.33 µM and 7.9 µM and 6.25 µM
EC50 (Ba/F3^myr-Akt2 cells; [15]): 14.9 µM
viability at 0.0001 µM (Ba/F3^myr-Akt2 cells; Mus musculus, read-out: cell viability, CTG, myr-Akt2, 0.1 nM, single replicates): 100%
viability at 5 µM (Ba/F3^myr-Akt2 cells; Mus musculus, read-out: cell viability, CTG, myr-Akt2, 5000 nM, single replicates): 96.1%
EC50 (Ba/F3^myr-Akt2 cells; [16]): 13.5 µM and 21.4 µM and 14.1 µM and 10.4 µM
EC50 (Ba/F3^myr-Akt3 cells; [18]): > 30 µM
viability at 0.0001 µM (Ba/F3^myr-Akt3 cells; Mus musculus, read-out: cell viability, CTG, myr-Akt3, 0.1 nM, single replicates): 105%
viability at 5 µM (Ba/F3^myr-Akt3 cells; Mus musculus, read-out: cell viability, CTG, myr-Akt3, 5000 nM, single replicates): 99.8%
Log ratio EC50 [Akt] / EC50 [Akt], Akt3 / Akt2 (Ba/F3^myr-Akt3 cells): -0.26
EC50 (Ba/F3^myr-Akt3 cells; [19]): > 30 µM (2×) and 17.8 µM
Log ratio IC50 [Akt] / IC50 [Akt], Akt1 / Akt2 (Akt1 [1]): -2.52

EC50 (Ba/F3^myr-Akt1 cells; [31]): 19.7 µM
EC50 (Ba/F3^myr-Akt1 cells; [13]): 21.2 µM
EC50 (Ba/F3^myr-Akt1 cells; [14]): 13.3 µM and 24.6 µM
EC50 (Ba/F3^myr-Akt2 cells; [15]): 2.23 µM
EC50 (Ba/F3^myr-Akt2 cells; Mus musculus, read-out: CTG BaF3myr-Akt2, individual determinations, single replicates): 2.02 µM
EC50 (Ba/F3^myr-Akt2 cells; [16]): 2.49 µM and 2.19 µM
EC50 (Ba/F3^myr-Akt3 cells; [17]): 6.52 µM
EC50 (Ba/F3^myr-Akt3 cells; [18]): 5.55 µM
EC50 (Ba/F3^myr-Akt3 cells; [19]): 6.27 µM and 7.12 µM
IC50 (Akt1 [1]; [20]): 1.8 µM
IC50 (Akt1 [1]; [21]): 1.82 µM and 2.04 µM and 2.47 µM and 0.858 µM
IC50 (Akt1 [1]; [22]): 2.11 ± 0.268 µM
Log ratio IC50 [Akt] / IC50 [Akt], Akt1 / Akt2 (Akt1 [1]): 1.30
IC50 (Akt2 [2]; [23]): 0.0985 µM
IC50 (Akt2 [2]; [24]): 0.0929 µM and 0.124 µM and 0.104 µM
IC50 (Akt2 [2]; [25]): 0.099 ± 0.006 µM
IC50 (Akt3 [3]; [26]): 0.233 µM and 0.416 µM and 0.225 µM and 0.214 µM
IC50 (Akt3 [3]; [27]): 0.272 ± 0.084 µM
Ki (Akt2 [5]; Ki Akt2): 0.021 ± 0.005 µM
Ki (Akt2 [5]; [28]): 0.0213 µM
Ki (Akt2 [5]; [29]): 0.0272 µM and 0.0156 µM
kinact/KI (Akt2 [5]; read-out: kinact /Ki Akt2): 12000 ± 5000 M⁻¹ s⁻¹
kinact (Akt2 [5]; read-out: kinact Akt2): 0.000233 s⁻¹
kinact (Akt2 [5]; [30]): 0.000267 s⁻¹
kinact Akt2, individual determinations (Akt2 [5]; single replicates): 0.017 min⁻¹ and 0.009 min⁻¹
Ki (Akt3 [8]; Ki Akt3): 0.064 ± 0.004 µM
Ki (Akt3 [8]; Ki Akt3, Mean, mean of replicates): 0.0638 µM
Ki (Akt3 [8]; Ki Akt3, individual determinations, single replicates): 0.0626 µM and 0.0693 µM and 0.0594 µM
kinact/KI (Akt3 [8]; read-out: kinact /Ki Akt3): 8000 ± 1000 M⁻¹ s⁻¹
kinact/KI (Akt3 [8]; read-out: kinact /Ki Akt3, individual determinations, single replicates): 7000 M⁻¹ s⁻¹
kinact (Akt3 [8]; read-out: kinact Akt3): 0.000517 s⁻¹
kinact (Akt3 [8]; read-out: kinact Akt3, Mean, mean of replicates): 0.000517 s⁻¹
kinact (Akt3 [8]; read-out: kinact Akt3, individual determinations, single replicates): 0.000433 s⁻¹
kinact /Ki Akt3, individual determinations (Akt3 [8]; single replicates): 0.009
kinact Akt3, individual determinations (Akt3 [8]; single replicates): 0.037 min⁻¹ and 0.031 min⁻¹
SMILES: C=CC(=O)Nc1ccc2[nH]c(=O)n(C3CCN(Cc4ccc(-c5ncc(Cc6cccnc6)cc5-c5ccccc5)cc4)CC3)c2c1 [compound 21]
EC50 (parental Ba/F3 cells; [10]): 14.7 µM
EC50 (parental Ba/F3 cells; [11]): 18.2 µM
EC50 (parental Ba/F3 cells; [12]): 11.7 µM and 14.3 µM
Log ratio EC50 [Akt] / EC50 [Akt], Akt1 / Akt2 (Ba/F3^myr-Akt1 cells): 0.95
Log ratio EC50 [Akt] / EC50 [Akt], Akt3 / Akt2 (Ba/F3^myr-Akt3 cells): -0.46
